In US20100137445A1, “PLANT DISEASE CONTROL AGENT, AND PLANT DISEASE CONTROL METHOD” (SUMITOMO CHEMICAL COMPANY ,LIMITED, priority 2007, published 2010):
Where two headings read alike, the source gives them in different places.

System: Phytophthora infestans
Assay type: in vivo
Conditions: tomato (Patio) seedling, foliage application
[1] = concentration of present compound 50 ppm
[2] = concentration of present compound 200 ppm

Compound | Control value [1] | Control value [2]
COc1ccc(C(=O)NCC2CCCCC2)cc1F [present compound 7, N-(cyclohexylmethyl)-3-fluoro-4-methoxybenzamide] | ++ (40% or more and less than 60% of the lesion spot area on an untreated plant.) | ++++ (Less than 20% of the lesion spot area on an untreated plant.)
COc1c(F)cc(C(=O)NCC2CCCCC2)cc1F [present compound 9, N-(cyclohexylmethyl)-3,5-difluoro-4-methoxybenzamide] | ++++ (Less than 20% of the lesion spot area on an untreated plant.) | ++++ (Less than 20% of the lesion spot area on an untreated plant.)
